# Laboratory results reported in patent publication US8916516B2, “Treatment of fungal and/or protist infections” (AI2 Limited, priority 2005, dated 2014).
# How the values were obtained:
# Assay type in all cases: cell-based
# [1] = test system: Aspergillus fumigatus AF293 (NCPF7367); experiment: microbe, parasite or virus in culture; conditions: Aspergillus fumigatus 293; peptides; Tables 4 and 5
# Method: (§1) Four compounds were supplied as an aqueous solution, 400 μM. Serial dilutions of each test peptide were prepared in addition to a control, which was a conventional antifungal drug, Amphoteracin B. Amphteracin B is obtained from Invitrogen or Melford laboratories.
# (§2) Initial testing of the peptides was carried out against the following organisms: • 1) Aspergillus fumigatus AF293 (culture collection strain NCPF7367) • 2) Candida albicans 6862 (clinical isolate) • 3) Fusarium spp 5889 (clinical isolate) • 4) Fusarium spp 6507 (clinical isolate) • 5) Aspergillus terreus (clinical isolate) • 6) Aspergillus niger (clinical isolate) • 7) Staphylococcus aureus (Oxford strain, which is a standard reference strain used in MIC testing)
# The bacterium S. aureus was tested with each of the peptides as a control. A suspension of each organism in an appropriate growth medium was added to the, dilutions of the peptides in order to give concentration ranges of 40 μM to 0.04 μM for each of the peptides, and 64-0.025 μg/ml for amphotericin B. Fungal strains were tested in RPMI media. RPMI is standard Roswell Park Memorial Institute medium (Morton, H. C., (1970) A survey of Commercially Available Tissue Culture Media. In Vitro 6: 89-108).
# The final inoculum for S. aureus was 5×10^4 cfu/ml. The final inoculum for C. albicans was 2×10^3 cfu/ml. The final inoculum for Aspergillus fumigatus and for Fusarium spp was 2×10^4 cfu/ml.
# (§3) Candida and S. aureus plates were read after 24 hrs incubation and the Aspergillus and Fusarium strains read after 48 hrs. The MIC was taken as the lowest drug or compound concentration that caused >80% reduction in growth compared with a drug free control.
# Aspergillus fumigatus 293 (AF); and
# FS1-FS4 were obtained from Bristol PHLS (British Public Health Laboratory Service UK). Aspergillus fumigatus 293 is publicly available as culture collection strain NCPF7367 (National Collection of Pathogenic Fungi Public Health Laboratory, Mycological Reference Laboratory Myrtle Road, Kingsdown, Bristol BS2 8EL) The Candida albicans was a clinical isolate obtained by standard means. […]
# [2] = test system: Fusarium solani 1 (FS1); experiment: Antifungal MIC (Example 4); conditions: Fusarium solani 1; peptides; Tables 4 and 5
# Method: (§4) The inventor expanded the work conducted in Example 1 by testing an expanded library of peptides derived from either apolipoprotein B or apolipoprotein E in order to further evaluate polypeptides in accordance with the invention. These experiments were conducted using the following fungal species:
# (§5) FS1-FS4 were obtained from Bristol PHLS (British Public Health Laboratory Service UK). Aspergillus fumigatus 293 is publicly available as culture collection strain NCPF7367 (National Collection of Pathogenic Fungi Public Health Laboratory, Mycological Reference Laboratory Myrtle Road, Kingsdown, Bristol BS2 8EL) The Candida albicans was a clinical isolate obtained by standard means.
# (§6) The methods used to determine, the IC50 values for each peptide were as described in the Example 1.
# [3] = test system: Fusarium solani 2 (FS2); experiment: Antifungal MIC (Example 4); conditions: Fusarium solani 2; peptides; Tables 4 and 5
# Method: as §4, §5, §6
# [4] = test system: Fusarium solani 3 (FS3); experiment: Antifungal MIC (Example 4); conditions: Fusarium solani 3; peptides; Tables 4 and 5
# Method: as §4, §5, §6
# [5] = test system: Fusarium solani 4 (FS4); experiment: Antifungal MIC (Example 4); conditions: Fusarium solani 4; peptides; Tables 4 and 5
# Method: as §4, §5, §6
# [6] = test system: Candida albicans (CA), clinical isolate; experiment: Antifungal MIC (Example 4); conditions: peptides, Tables 4 and 5
# Method: as §4, §5, §6
# [7] = test system: fungi; conditions: overall statement on the fungi tested
# Method: as §1, §2
# The bacterium S. aureus was tested with each of the peptides as a control. […] RPMI is standard Roswell Park Memorial Institute medium (Morton, H. C., (1970) A survey of Commercially Available Tissue Culture Media. In Vitro 6: 89-108).
# as §3, §6
sequence,measurement,setting,value
"ARKARKRAAARKARKRAA (Artificial polypeptide designated MU 2) [MU_2, 77]",MIC values (>80% reduction) AF,[1],>40 µM
same,MIC values (>80% reduction) FS1,[2],>40 µM
same,MIC values (>80% reduction) FS2,[3],>40 µM
same,MIC values (>80% reduction) FS3,[4],>40 µM
same,MIC values (>80% reduction) FS4,[5],>40 µM
same,MIC values (>80% reduction) CA,[6],>40 µM
"DRKDRKRDDDRKDRKRDD (Artificial polypeptide designated MU 3) [MU_3, 78]",MIC values (>80% reduction) AF,[1],>40 µM
same,MIC values (>80% reduction) FS1,[2],>40 µM
same,MIC values (>80% reduction) FS2,[3],>40 µM
same,MIC values (>80% reduction) FS3,[4],>40 µM
same,MIC values (>80% reduction) FS4,[5],>40 µM
same,MIC values (>80% reduction) CA,[6],>40 µM
"ERKERKREEERKERKREE (Artificial polypeptide designated MU 1) [MU_1, 76]",MIC values (>80% reduction) AF,[1],>40 µM
same,MIC values (>80% reduction) FS1,[2],>40 µM
same,MIC values (>80% reduction) FS2,[3],>40 µM
same,MIC values (>80% reduction) FS3,[4],>40 µM
same,MIC values (>80% reduction) FS4,[5],>40 µM
same,MIC values (>80% reduction) CA,[6],>40 µM
"GRKGRKRGGGRKGRKRGG (Artificial polypeptide designated MU 17) [MU_17, 84]",MIC values (>80% reduction) AF,[1],>40 µM
same,MIC values (>80% reduction) FS1,[2],>40 µM
same,MIC values (>80% reduction) FS2,[3],>40 µM
same,MIC values (>80% reduction) FS3,[4],>40 µM
same,MIC values (>80% reduction) FS4,[5],>40 µM
same,MIC values (>80% reduction) CA,[6],>40 µM
HRKHRKRHHHRKHRKRHH (Artificial polypeptide designated MU 19) [MU_19],MIC values (>80% reduction) AF,[1],>40 µM
same,MIC values (>80% reduction) FS1,[2],20 µM
same,MIC values (>80% reduction) FS2,[3],>40 µM
same,MIC values (>80% reduction) FS3,[4],40 µM
same,MIC values (>80% reduction) FS4,[5],10 µM
same,MIC values (>80% reduction) CA,[6],>40 µM
IRKIRKRIIIRKIRKRII (Artficial polypeptide designated MU 8) [MU_8],MIC values (>80% reduction) AF,[1],>40 µM
same,MIC values (>80% reduction) FS1,[2],40 µM
same,MIC values (>80% reduction) FS2,[3],20 µM
same,MIC values (>80% reduction) FS3,[4],20 µM
same,MIC values (>80% reduction) FS4,[5],40 µM
same,MIC values (>80% reduction) CA,[6],>40 µM
"LRKLRKRLL (listed as Homo sapiens) [apoE141-149, monomeric 9-mer of apolipoprotein E, reference compound]",antifungal activity (in words),[7],no detectable antifungal activity
"LRKLRKRLLLRKLRKRWW (Artificial polypeptide designated MU 112) [MU_112, 24]",MIC values (>80% reduction) AF,[1],>40 µM
same,MIC values (>80% reduction) FS1,[2],2.5 µM
same,MIC values (>80% reduction) FS2,[3],2.5 µM
same,MIC values (>80% reduction) FS3,[4],2.5 µM
same,MIC values (>80% reduction) FS4,[5],5 µM
same,MIC values (>80% reduction) CA,[6],>40 µM
"LRKLRKRLLRLRKLRKRLLR (Artificial polypeptide designated MU 82) [MU_82, 21]",MIC values (>80% reduction) AF,[1],>40 µM
same,MIC values (>80% reduction) FS1,[2],2.5 µM
same,MIC values (>80% reduction) FS2,[3],2.5 µM
same,MIC values (>80% reduction) FS3,[4],2.5 µM
same,MIC values (>80% reduction) FS4,[5],10 µM
same,MIC values (>80% reduction) CA,[6],>40 µM
MRKMRKRMMMRKMRKRMM (Artificial polypeptide designated MU 16) [MU_5],MIC values (>80% reduction) AF,[1],>40 µM
same,MIC values (>80% reduction) FS1,[2],10 µM
same,MIC values (>80% reduction) FS2,[3],20 µM
same,MIC values (>80% reduction) FS3,[4],20 µM
same,MIC values (>80% reduction) FS4,[5],40 µM
same,MIC values (>80% reduction) CA,[6],>40 µM
"NRKNRKRNNNRKNRKRNN (Artificial polypeptide designated MU 11) [MU_11, 80]",MIC values (>80% reduction) AF,[1],>40 µM
same,MIC values (>80% reduction) FS1,[2],>40 µM
same,MIC values (>80% reduction) FS2,[3],>40 µM
same,MIC values (>80% reduction) FS3,[4],40 µM
same,MIC values (>80% reduction) FS4,[5],>40 µM
same,MIC values (>80% reduction) CA,[6],>40 µM
"PRKPRKRPPPRKPRKRPP (Artificial polypeptide designated MU 20) [MU_20, 86]",MIC values (>80% reduction) AF,[1],>40 µM
same,MIC values (>80% reduction) FS1,[2],>40 µM
same,MIC values (>80% reduction) FS2,[3],>40 µM
same,MIC values (>80% reduction) FS3,[4],>40 µM
same,MIC values (>80% reduction) FS4,[5],>40 µM
same,MIC values (>80% reduction) CA,[6],>40 µM
"QRKQRKRQQQRKQRKRQQ (Artificial polypeptide designated MU 9) [MU_9, 79]",MIC values (>80% reduction) AF,[1],>40 µM
same,MIC values (>80% reduction) FS1,[2],>40 µM
same,MIC values (>80% reduction) FS2,[3],>40 µM
same,MIC values (>80% reduction) FS3,[4],>40 µM
same,MIC values (>80% reduction) FS4,[5],>40 µM
same,MIC values (>80% reduction) CA,[6],>40 µM
"RLTRKRGLK (listed as Homo sapiens) [apoB3359-3367, monomeric 9-mer of apolipoprotein B, reference compound]",antifungal activity (in words),[7],no detectable antifungal activity
"SRKSRKRSSSRKSRKRSS (Artificial polypeptide designated MU 13) [MU_13, 81]",MIC values (>80% reduction) AF,[1],>40 µM
same,MIC values (>80% reduction) FS1,[2],>40 µM
same,MIC values (>80% reduction) FS2,[3],>40 µM
same,MIC values (>80% reduction) FS3,[4],>40 µM
same,MIC values (>80% reduction) FS4,[5],>40 µM
same,MIC values (>80% reduction) CA,[6],>40 µM
"TRKTRKRTTTRKTRKRTT (Artificial polypeptide designated MU 15) [MU_15, 83]",MIC values (>80% reduction) AF,[1],>40 µM
same,MIC values (>80% reduction) FS1,[2],>40 µM
same,MIC values (>80% reduction) FS2,[3],>40 µM
same,MIC values (>80% reduction) FS3,[4],>40 µM
same,MIC values (>80% reduction) FS4,[5],>40 µM
same,MIC values (>80% reduction) CA,[6],>40 µM
"VRKVRKRVVVRKVRKRVV (Artificial polypeptide designated MU 14) [MU_14, 82]",MIC values (>80% reduction) AF,[1],>40 µM
same,MIC values (>80% reduction) FS1,[2],>40 µM
same,MIC values (>80% reduction) FS2,[3],>40 µM
same,MIC values (>80% reduction) FS3,[4],>40 µM
same,MIC values (>80% reduction) FS4,[5],>40 µM
same,MIC values (>80% reduction) CA,[6],>40 µM
WRKWRKRWWLRKLRKRLL (Artificial polypeptide designated GIN 34),MIC values (>80% reduction) AF,[1],40 µM
same,MIC values (>80% reduction) FS1,[2],1.25 µM
same,MIC values (>80% reduction) FS2,[3],0.6 µM
same,MIC values (>80% reduction) FS3,[4],1.25 µM
same,MIC values (>80% reduction) FS4,[5],12.5 µM
same,MIC values (>80% reduction) CA,[6],10 µM
